Data on three molecules can be found in patent US20020197244A1, “Compositions and methods for regulating phagocytosis and ICAM-1 expression” (priority 1998, published 2002).

One experiment deals with melanocytes. In words: Fluorescent microsphere ingestion by melanocytes. It counts as cell-based. As to conditions: which do not express PAR-2.
Experiment [1] deals with human skin, grafted on immuno-suppressed mice. As to the kind of experiment: Pigmentation of human skin grafted on immuno-suppressed mice. It counts as in vivo. On the procedure: Human white facial skin samples were grafted on immuno-suppressed mice using standard techniques. About six weeks later grafts of the same individual, grafted on different mice, were treated with vehicle (ethanol: propylene glycol 70:30), or with 50 μM SLIGRL. Treatment was performed daily, 5 days/week. Darkening of the SLIGRL-treated grafts was visually observed during the last weeks of treatment (see FIG. 7A). On day 66, the animals were sacrificed and their skins were analyzed histologically.
The same experiment was repeated with black human breast skin samples grafted on immuno-suppressed mice. Grafts of the same individual were treated with vehicle (GDL liposomes) or with 1% STI. GDL liposomes were prepared as set forth in Niemiec, et al., with the exception of the following changes: the non-ionic liposomal formulation contained glycerol dilaurate (Emulsynt GDL, ISP Van Dyk)/cholesterol (Croda)/polyoxyethylene-10-stearyl ether (Brij76, ICI)/polyoxyethylene-9-lauryl ether, at ratio of 37.5:12.5:33.3:16.7. Hepes buffer, 0.05M, pH 7.4 (Gibco-BRL of Gaithersburg, Md.) was used as the aqueous phase in the preparation of the liposomes.

The test system of experiment [2] is human primary keratinocytes. As to the kind of experiment: Fluorescent microsphere ingestion by human primary keratinocytes. It counts as cell-based. The conditions noted are these: treated two days; Compound I 1μM, SLIGRL 10μM; vs vehicle control; FIG. 1. On the procedure:
In order to study the role of the PAR-2 pathway in phagocytosis, several in vitro model systems were used. One system used contained primary human keratinocytes or a human keratinocyte cell line. In this and a number of following examples, cells were treated with test compounds for different amounts of time (from one hour to three days), and samples were then incubated with fluorescent microspheres for two hours. The beads ingested by the cells were photographed using fluorescence microscopy.
In this example, human primary keratinocytes or the human keratinocyte cell line HaCaT were used as in vitro model systems to study the effect of PAR-2 regulators on keratinocyte phagocytosis. The human primary keratinocytes used are commercially available from Clonetics (San Diego, Calif.). Cells were plated on chamber slides, at 2 chambers/slide and 60,000 cells/chamber. […]
Microspheres were also found around the cell, probably because they are non-specifically attached to extracellular-matrix components secreted by the cell. The quantity of the microspheres ingested was changed with the treatments.

The test system of experiment [3] is fibroblast cell line 92-3T3. As to the kind of experiment: Fluorescent microsphere ingestion by fibroblasts. It counts as cell-based. The conditions noted are these: vs untreated fibroblasts; FIG. 3. On the procedure: In this example, human primary keratinocytes or the human keratinocyte cell line HaCaT were used as in vitro model systems to study the effect of PAR-2 regulators on keratinocyte phagocytosis. The human primary keratinocytes used are commercially available from Clonetics (San Diego, Calif.). Cells were plated on chamber slides, at 2 chambers/slide and 60,000 cells/chamber. Cells were treated once daily, for two or three days, with Compound I (1μM), SLIGRL (10μM), or vehicle (Phosphate-buffered saline, (“PBS”) from Gibco-BRL (Gaithersburg, Md.). After two or three days of exposure to the test compounds, cells were exposed to Nile-red or FITC fluorescent microspheres, 1 μm in diameter, 50 microspheres/cell, for two hours at 37° C. Microspheres were from Molecular Probes (Eugene, Oreg.), and were processed according to manufacturer's instructions. Following that treatment, cells were incubated with 15% Fetal Bovine Serum (“FBS”, from Gibco-BRL), for 15 minutes at 37° C. and rinsed with PBS. At that time, chambers were separated from the slides, and the slides were covered with glycerol and coverslips. Fluorescent microscopy was performed using a Zeiss Axiovert 35 or a Nikon Optiphot-2 microscope.
The experiment described in Example 1 was repeated using the fibroblast cell line 92-3T3 (obtained from the ATCC in Rockville, Md.). Fibroblasts are not known to posses phagocytic ability.

A further experiment concerns human age spots. In words: Lightening of human age spots, topical treatment. The format is in vivo. The conditions noted are these: STI, 1%, in liposomes (20 mg/ml), twice a day, 8 weeks. On the procedure:
An individual with three age spots on the dorsum of […] hand was treated for eight weeks, twice a day, as follows. The proximal age spot was treated with placebo, containing 20 mg/ml of liposomes. The median age spot was not treated. The distal age spot was treated with STI, 1%, in liposomes (20 mg/ml). GDL liposomes were prepared as set forth in Niemiec, et al., with the exception of the following changes. The non-ionic liposomal formulation contained glycerol dilaurate (Emulsynt GDL, ISP Van Dyk)/cholesterol (Croda)/polyoxyethylene-10-stearyl ether (Brij76, ICI)/polyoxyethylene-9-lauryl ether, as at ratio of 37.5:12.5:33.3:16.7. Hepes buffer, 0.05M, pH 7.4 (Gibco-BRL of Gaithersburg, Md.) was used as the aqueous phase in the preparation of the liposomes. UV and visible light digital pictures were taken at times of 0, 4 and 8 weeks of treatment. L* (brightness) values were calculated from the images using Adobe Photoshop.
FIG. 11 is a composite of four pictures. The left panel is a visible light picture of the hand, before (upper) and after (lower) 8 weeks of treatment. At this orientation, the proximal age spot is placebo-treated, the median age spot is untreated, and the distal age spot is STI-treated.

Turning to SLIGRL [reference compound], the microsphere ingestion result with melanocytes is “no inducible effect on microsphere ingestion”. In experiment [1] (white facial skin grafts, 50 μM SLIGRL topical daily, 5 days/week, last weeks of treatment, FIG. 7A), the “visual appearance of grafts” value was “Darkening”. In experiment [1] (white facial skin grafts, 50 μM SLIGRL, day 66, FIG. 7B), the “melanin in F&M-stained sections” value is reported as “increase in melanin”. Besides, in experiment [2], the “quantity of ingested microspheres” value is recorded as “dramatic increase in the number of ingested microspheres”. In experiment [3], the “number of ingested beads” value was “increased the number of ingested beads”.

For the molecule `CN[C@H](Cc1ccccc1)C(=O)N1CCCC1C(=O)N[C@@H](CCCNC(=N)N)C(=O)c1nc2ccccc2s1` (stereo partly drawn) [Compound I, (S)-N-Methyl-D-phenylalanyl-N-[4-[(aminoiminomethyl)amino]-1-(2-benzothiazolylcarbonyl)butyl]-L-prolinamide], the “quantity of ingested microspheres” value in experiment [2] was “dramatic reduction in the quantity of ingested microspheres”.

B1: STI: Soybean trypsin inhibitor, a serine protease inhibitor capable of affecting the PAR-2 pathway (protein, UniProt P01070 25-205, looked up)
Trypsin inhibitor A: DFVLDNEGNPLENGGTYYILSDITAFGGIRAAPTGNERCPLTVVQSRNELDKGIGTIISSPYRIRFIAEGHPLSLKFDSFAVIMLCVGIPTEWSVVEDLPEGPAVKIGENKDAMDGWFRLERVSDDEFNNYKLVFCPQQAEDDKCGDIGISIDHDDGTRRLVVSKNKPLVVQFQKLDKESL
In the case of B1, the “pigmentation in F&M-stained skin sections” value in experiment [1] (black breast skin grafts, 1% STI in GDL liposomes, FIG. 7C) is recorded as “reduce pigmentation in human skin”. Moreover, the “increase in L* (brightness)” value with human age spots (calculated from images) is 15 L* units. Also, the age spot appearance result in the experiment on human age spots (one individual, FIG. 11) is on record as “became lighter”.
